In PMC8625052, “The Antiarrhythmic Activity of Novel Pyrrolidin-2-one Derivative S-75 in Adrenaline-Induced Arrhythmia” (Pharmaceuticals, 2021):
“Also recorded” adds a separate entry of the source.

Experiments:
[1] = system: arrhythmia caused by cardiac ischemia in dogs; design: method as in PMID 7528295; details: dogs after myocardial infarction; cited from earlier work
[2] = system: isolated ischemic rat hearts; design: method as in PMID 9228191; details: cited from earlier work
[3] = molecular target: T1, β1-adrenergic receptors (Rattus norvegicus, UniProt P18090); experiment: Radioligand binding assay for β1-adrenergic receptors ([3H]-CGP-12177); details: rat cortex tissue
T1 construct: from tissue; host or cells: rat cortex
T1 sequence (P18090 whole entry): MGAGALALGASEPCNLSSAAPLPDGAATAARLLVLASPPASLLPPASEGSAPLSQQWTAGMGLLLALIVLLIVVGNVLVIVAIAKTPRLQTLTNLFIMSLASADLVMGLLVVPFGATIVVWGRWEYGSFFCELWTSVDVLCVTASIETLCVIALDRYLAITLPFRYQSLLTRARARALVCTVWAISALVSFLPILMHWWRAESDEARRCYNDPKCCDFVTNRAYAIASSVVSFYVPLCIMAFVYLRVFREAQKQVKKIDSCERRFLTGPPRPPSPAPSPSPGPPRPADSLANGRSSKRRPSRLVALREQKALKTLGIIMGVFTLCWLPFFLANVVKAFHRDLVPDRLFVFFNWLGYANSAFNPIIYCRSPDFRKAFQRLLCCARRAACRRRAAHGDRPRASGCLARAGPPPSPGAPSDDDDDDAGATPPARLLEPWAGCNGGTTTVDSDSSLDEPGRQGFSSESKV
Method: Radioligand binding assay was performed on tissue rat cortex. […] In order to measure the unspecific binding 1 μM of propranolol was applied. Microplate was covered with a sealing tape, mixed and incubated for 60 minutes at 37 °C. The incubation was terminated by rapid filtration through GF/B filter mate. Ten rapid washes with 200 µL 50 mM Tris buffer (4 °C, pH 7.6) were completed using 96-well FilterMate harvester (PerkinElmer, Boston, MA, USA). The filter mates were dried at 37 °C in forced air fan incubator and then solid scintillator MeltiLex was melted on filter mates at 90 °C for 4 min. […] Data were fitted to a one-site curve-fitting equation with Prism 6 (GraphPad Software, San Diego, CA, USA) and Ki values were estimated from the Cheng−Prusoff equation [51].

[4] = molecular target: T2, potassium hERG channel (Homo sapiens, UniProt Q12809); experiment: Radioligand binding assay for K+ channel hERG ([3H]-dofetilide, HEK-293 cells)
T2 construct: host or cells: HEK-293
T2 sequence (Q12809 whole entry): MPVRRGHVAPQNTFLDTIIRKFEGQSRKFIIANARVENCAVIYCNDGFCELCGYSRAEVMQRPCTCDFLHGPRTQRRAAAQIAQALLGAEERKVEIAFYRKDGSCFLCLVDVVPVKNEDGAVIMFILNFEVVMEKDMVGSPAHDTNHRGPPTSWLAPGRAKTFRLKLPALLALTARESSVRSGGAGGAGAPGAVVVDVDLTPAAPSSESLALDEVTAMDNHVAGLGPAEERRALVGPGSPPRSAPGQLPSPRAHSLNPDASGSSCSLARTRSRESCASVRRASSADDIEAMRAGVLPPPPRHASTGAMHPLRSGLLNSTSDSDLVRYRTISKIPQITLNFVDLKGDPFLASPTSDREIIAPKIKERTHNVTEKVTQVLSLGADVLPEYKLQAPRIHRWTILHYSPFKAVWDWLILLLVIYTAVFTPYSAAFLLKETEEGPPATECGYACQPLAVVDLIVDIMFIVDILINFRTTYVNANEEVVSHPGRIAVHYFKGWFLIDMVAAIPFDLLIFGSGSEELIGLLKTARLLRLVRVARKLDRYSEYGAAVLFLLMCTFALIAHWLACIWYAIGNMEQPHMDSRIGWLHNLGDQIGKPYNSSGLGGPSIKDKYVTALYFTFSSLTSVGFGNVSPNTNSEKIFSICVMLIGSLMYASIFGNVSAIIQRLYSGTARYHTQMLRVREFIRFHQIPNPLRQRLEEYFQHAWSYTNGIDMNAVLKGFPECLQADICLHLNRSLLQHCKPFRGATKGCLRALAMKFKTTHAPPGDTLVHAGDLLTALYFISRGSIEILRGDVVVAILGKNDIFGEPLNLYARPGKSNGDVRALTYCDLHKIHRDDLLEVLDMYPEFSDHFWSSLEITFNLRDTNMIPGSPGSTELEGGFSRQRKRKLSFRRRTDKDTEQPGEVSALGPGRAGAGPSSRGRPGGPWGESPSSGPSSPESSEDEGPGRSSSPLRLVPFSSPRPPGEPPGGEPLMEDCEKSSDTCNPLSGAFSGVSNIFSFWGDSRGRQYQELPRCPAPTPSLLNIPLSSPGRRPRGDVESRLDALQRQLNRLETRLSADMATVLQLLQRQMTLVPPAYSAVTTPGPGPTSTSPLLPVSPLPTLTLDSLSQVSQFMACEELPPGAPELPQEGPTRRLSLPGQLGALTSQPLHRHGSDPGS
Method: The radioligand binding studies for K^+ and Ca^2+ channels were performed commercially by Eurofins Cerep (Celle l’Evescault, France) using testing procedures described elsewhere [68, 69].

[5] = molecular target: Ca2+ channel (L, verapamil site); experiment: Radioligand binding assay for Ca2+ channel ([3H]-D888); design: species or system rat; details: for IC50: rat cortex tissue, [3H]-D888
Method: The radioligand binding studies for K^+ and Ca^2+ channels were performed commercially by Eurofins Cerep (Celle l’Evescault, France) using testing procedures described elsewhere. […]

[6] = system: normal ECG in rats; experiment: Effect on normal electrocardiogram in rats; format: in vivo, rat; design: PQ / QRS / QTc / QT / Rate (heart rate): unit not given here; details: 5 mg/kg iv; for QTc: Bazzett's formula
Method: To eliminate the influence of the tested derivative on normal electrocardiogram (ECG), the experiment was performed. ECG tests were carried out with Aspel ASCARD apparatus (standard II lead, with the tape speed 50 mm/s and voltage calibration 1 Mv = 1 cm). The ECG was recorded prior and 5, 10, 15 min after iv administration of tested compound. The influence on PQ, QT, QTc interval, QRS complex and heart rate (RR) was defined. The Bazzett’s formula: QTc = QT/√RR was used to calculate QTc.

[7] = system: isolated rat heart; experiment: Effect on normal ECG of isolated rat heart (Langendorff)
Method: Hearts form Wistar rats were isolated and immersed in Chenoweth-Koelle solution (120 mM NaCl; 5 mM KCl; 2.2 mM MgCl2; […]; 2.4 mM CaCl2; 10 mM glucose). Hearts were perfused according to the Langendorff model under a constant pressure of 70 cm H2O (6.87 kPa) with a solution at 37 °C, pH 7.4, constantly oxygenated (O2/CO2, 19:1) using the MyoHEART Langendorff System-900MH (Danish Myo Technology, Hinnerup, Denmark), which simultaneously monitored the ECG. After 20-min stabilization period, the tested compound was administered directly to the nutrient fluid every 15 min at increasing concentrations of […]. The influence on PQ, QTc interval, QRS complex and heart rate (RR) was assessed. The Bazzett’s formula: QTc = QT/√RR was used to calculate QTc.

[8] = system: adrenaline-induced arrhythmia in rats; experiment: Prophylactic antiarrhythmic activity in adrenaline-induced arrhythmia; format: in vivo, rat; details: for Blocks (%) / Bradycardia (%) / Extrasystoles (%) / Mortality (%): adrenaline 20 μg/kg iv, % occurrence
[9] = system: calcium chloride-induced arrhythmia in rats; experiment: Prophylactic antiarrhythmic activity in calcium chloride-induced arrhythmia; format: in vivo, rat
[10] = system: aconitine-induced arrhythmia in rats; experiment: Prophylactic antiarrhythmic activity in aconitine-induced arrhythmia; format: in vivo, rat
[11] = system: post-reperfusion arrhythmia of isolated rat heart; experiment: Antiarrhythmic activity in the post-reperfusion model in isolated rat heart; details: for Extrasystoles (%) / Fibrillations (%) / Tachycardia (%): % occurrence
Method: Hearts form Wistar rats were isolated and immersed in Chenoweth–Koelle solution (120 mM NaCl; 5 mM KCl; 2.2 mM MgCl2; […]; 2.4 mM CaCl2; 10 mM glucose). Hearts were perfused according to the Langendorff model under a constant pressure of 70 cm H2O (6.87 kPa) with a solution at 37 °C, pH 7.4, constantly oxygenated (O2/CO2, 19:1) using the MyoHEART Langendorff System-900MH (Danish Myo Technology, Hinnerup, Denmark), which monitored the ECG. After 20 min stabilization period, acute myocardial ischemia was induced locally by installing a clamp on the left coronary artery (ischemic period). After 15 min, the clamp was removed, and ECG changes were monitored for 30 min (reperfusion period). The tested compound was added to the perfusion solution 15 min before coronary artery clamping. The point scale described by Bernauer was used to assess the antiarrhythmic activity in this arrhythmia model. The occurrence of a specific type of heart rhythm disturbance during the reperfusion period was scored according to the following scale: • occurrence of less than 10 extrasystoles—1 point; • occurrence of more than 10 extrasystoles—2 points; • presence of ventricular tachycardia—3 points; • presence of fibrillation—4 points.

[12] = molecular target: α1 receptors; design: method as in PMID 25813897; details: cited from earlier work
[13] = molecular target: α2 receptors; design: method as in PMID 25813897; details: cited from earlier work
[14] = molecular target: α1A receptor; design: method as in PMID 25813897; details: antagonist; cited from earlier work
[15] = molecular target: α1B receptor; design: method as in PMID 25813897; details: antagonist; cited from earlier work
[16] = system: blood pressure in normotensive rats; design: method as in PMID 25813897; details: doses 5, 1, and 0.5 mg/kg; cited from earlier work
[17] = 0 min (prior to administration)
[18] = dose 0.03 mg/kg iv 15 min before
[19] = dose 0.06 mg/kg iv 15 min before
[20] = dose 0.125 mg/kg iv 15 min before
[21] = dose 0.25 mg/kg iv 15 min before
[22] = dose 0.5 mg/kg iv 15 min before
[23] = calcium chloride 140 mg/kg iv, dose 5 mg/kg iv 15 min before, % occurrence
[24] = aconitine 20 μg/kg iv, dose 5 mg/kg iv 15 min before, % occurrence
[25] = reperfusion, concentration 10^−10 M
[26] = reperfusion, concentration 10^−11 M

Question: What does the source list for COc1cc2nc(N3CCN(C(=O)c4ccco4)CC3)nc(N)c2cc1OC [prazosin]?
Answer: animals in which arrhythmia caused by cardiac ischemia was prevented [1]: 78%; reduction of the incidence of ventricular fibrillation / arrhythmias [2]: 83%

Question: Which results are given for Cl.O=C1CCCN1CCCCN1CCN(c2ccccc2Cl)CC1 [S-75, 1-(4-(4-(2-chlorophenyl)piperazin-1-yl)butyl)pyrrolidin-2-one hydrochloride]?
Answer: β1 (pKi [nM]) [3]: did not bind; IC50 ([4]; HEK-293 cells, [3H]-dofetilide): 29.3 µM; affinity toward potassium channel hERG, times lower than terfenadine ([4]; vs terfenadine): 1172 times; IC50 [5]: 0.757 µM; affinity for L-type calcium channels, times lower than D-600 ([5]; vs reference D-600): 20 times; influence on QRS [6]: no influence; influence on QT [6]: no influence; influence on QTc [6]: no influence; also recorded: did not prolong; PQ [6, 17]: 46.44 ± 1.352; QRS [6, 17]: 33.78 ± 1.384; QT [6, 17]: 81.57 ± 1.356; Rate (heart rate) [6, 17]: 310.8 ± 17.07; QTc [6, 17]: 182.9 ± 4.805; PQ ([6]; 5 min): 47.00 ± 1.537; QRS ([6]; 5 min): 35.56 ± 1.701; QT ([6]; 5 min): 81.53 ± 1.812; Rate (heart rate) ([6]; 5 min): 307.9 ± 18.93; QTc ([6]; 5 min): 192.3 ± 6.176; PQ ([6]; 10 min): 49.78 ± 1.042; QRS ([6]; 10 min): 33.89 ± 1.628; QT ([6]; 10 min): 82.47 ± 2.186; Rate (heart rate) ([6]; 10 min): 287.8 ± 22.94; QTc ([6]; 10 min): 189.3 ± 9.543; PQ ([6]; 15 min): 52.11 ± 2.061; QRS ([6]; 15 min): 37.22 ± 1.637; QT ([6]; 15 min): 83.90 ± 1.730; Rate (heart rate) ([6]; 15 min): 284.0 ± 23.50; QTc ([6]; 15 min): 190.9 ± 11.46; decrease of the heart rate ([6]; after 10 min): 7.4%; decrease of the heart rate ([6]; after 15 min): 8.6%; prolongation of the PQ interval ([6]; after 15 min): 12.2%; prolongation of the PQ interval ([7]; 10^−8 mol/L): 15.1%; prolongation of the RR interval ([7]; 10^−8 mol/L): 10.5%; effect on QRS complex ([7]; 10^−10–10^−8 mol/L): not affecting; also recorded: did not affect; effect on QTc interval ([7]; 10^−10–10^−8 mol/L): not affecting; also recorded: did not affect; ED50 ([8]; Rattus norvegicus, prophylactic, iv 15 min before adrenaline 20 μg/kg, Litchfield and Wilcoxon, limits in brackets, read-out: ED50 (a dose producing a 50% inhibition of ventricular contractions)): 0.05 mg/kg; Blocks (%) [8, 18]: 100%; Bradycardia (%) [8, 18]: 100%; Extrasystoles (%) [8, 18]: 100%; Mortality (%) [8, 18]: 33.3%; Blocks (%) [8, 19]: 50%; Bradycardia (%) [8, 19]: 100%; Extrasystoles (%) [8, 19]: 83.3%; Mortality (%) [8, 19]: 0%; Blocks (%) [8, 20]: 33.3%; Bradycardia (%) [8, 20]: 33.3%; Extrasystoles (%) [8, 20]: 66.7%; Mortality (%) [8, 20]: 50%; Blocks (%) [8, 21]: 50%; Bradycardia (%) [8, 21]: 16.7%; Extrasystoles (%) [8, 21]: 66.7%; Mortality (%) [8, 21]: 0%; Blocks (%) [8, 22]: 33.3%; Bradycardia (%) [8, 22]: 0%; Extrasystoles (%) [8, 22]: 16.7%; Mortality (%) [8, 22]: 0%; Blocks (%) [9, 23]: 100%; Bradycardia (%) [9, 23]: 100%; Extrasystoles (%) [9, 23]: 100%; Fibrillations (%) [9, 23]: 66.7%; Mortality (%) [9, 23]: 83.3%; activity in calcium chloride-induced arrhythmia ([9]; prophylactic, rats): no activity; Blocks (%) [10, 24]: 100%; Bradycardia (%) [10, 24]: 100%; Extrasystoles (%) [10, 24]: 100%; Fibrillations (%) [10, 24]: 100%; Mortality (%) [10, 24]: 100%; activity in aconitine-induced arrhythmia ([10]; prophylactic, rats): no activity; activity in the post-reperfusion model of arrhythmia [11]: did not show the activity; Extrasystoles (%) [11, 25]: 100%; Fibrillations (%) [11, 25]: 100%; Tachycardia (%) [11, 25]: 100%; pKi α1 receptors [12]: 7.3; pKi α2 receptors [13]: 6.01; EC50 [14]: 0.138 ± 0.0219 µM; EC50 [15]: 0.00253 ± 0.0005 µM; effect on blood pressure [16]: significantly decreased the blood pressure

Question: For COc1cccc(OC)c1OCCNCC1COc2ccccc2O1 (stereo not drawn) [WB 4101], which “reduction of the incidence of ventricular fibrillation / arrhythmias” value [2] is on record?
Answer: 49%

Question: With CCCNCC(O)COc1ccccc1C(=O)CCc1ccccc1 (stereo not drawn) [Propafenone, reference compound] as the compound, how does the “Blocks (%)” value ([10]; rat, in vivo, 5 mg/kg) read?
Answer: 83.3%

Question: And the “Bradycardia (%)” value ([10]; rat, in vivo, 5 mg/kg)?
Answer: 100%

Question: What about the “Extrasystoles (%)” value ([10]; rat, in vivo, 5 mg/kg) of the same compound?
Answer: 66.7%

Question: And the “Fibrillations (%)” value ([10]; rat, in vivo, 5 mg/kg)?
Answer: 33.3%

Question: What about the “Mortality (%)” value ([10]; rat, in vivo, 5 mg/kg) of the same compound?
Answer: 16.6%

Question: What about the “Extrasystoles (%)” value [11, 26] of the same compound?
Answer: 100%

Question: What about the “Fibrillations (%)” value [11, 26] of the same compound?
Answer: 33.3%

Question: And the “Tachycardia (%)” value [11, 26]?
Answer: 66.7%

Question: And the “Arrhythmia Severity Index” value ([11]; reperfusion, concentration 10^−11 M, Bernauer scale)?
Answer: 6.7

Question: Which IC50 [5] does the source give for COc1ccc(CCN(C)CCCC(C#N)(c2cc(OC)c(OC)c(OC)c2)C(C)C)cc1OC [D-600, reference compound] here?
Answer: 0.037 µM
